Experimental data taken from ChEMBL document CHEMBL3991601, “The target landscape of clinical kinase drugs” (Science, 2017).
Active and inactive are the calls of the source.

Key:
[1] = molecular target: T1, Breakpoint cluster region protein (Homo sapiens, UniProt P11274)
T1 sequence (P11274 whole entry): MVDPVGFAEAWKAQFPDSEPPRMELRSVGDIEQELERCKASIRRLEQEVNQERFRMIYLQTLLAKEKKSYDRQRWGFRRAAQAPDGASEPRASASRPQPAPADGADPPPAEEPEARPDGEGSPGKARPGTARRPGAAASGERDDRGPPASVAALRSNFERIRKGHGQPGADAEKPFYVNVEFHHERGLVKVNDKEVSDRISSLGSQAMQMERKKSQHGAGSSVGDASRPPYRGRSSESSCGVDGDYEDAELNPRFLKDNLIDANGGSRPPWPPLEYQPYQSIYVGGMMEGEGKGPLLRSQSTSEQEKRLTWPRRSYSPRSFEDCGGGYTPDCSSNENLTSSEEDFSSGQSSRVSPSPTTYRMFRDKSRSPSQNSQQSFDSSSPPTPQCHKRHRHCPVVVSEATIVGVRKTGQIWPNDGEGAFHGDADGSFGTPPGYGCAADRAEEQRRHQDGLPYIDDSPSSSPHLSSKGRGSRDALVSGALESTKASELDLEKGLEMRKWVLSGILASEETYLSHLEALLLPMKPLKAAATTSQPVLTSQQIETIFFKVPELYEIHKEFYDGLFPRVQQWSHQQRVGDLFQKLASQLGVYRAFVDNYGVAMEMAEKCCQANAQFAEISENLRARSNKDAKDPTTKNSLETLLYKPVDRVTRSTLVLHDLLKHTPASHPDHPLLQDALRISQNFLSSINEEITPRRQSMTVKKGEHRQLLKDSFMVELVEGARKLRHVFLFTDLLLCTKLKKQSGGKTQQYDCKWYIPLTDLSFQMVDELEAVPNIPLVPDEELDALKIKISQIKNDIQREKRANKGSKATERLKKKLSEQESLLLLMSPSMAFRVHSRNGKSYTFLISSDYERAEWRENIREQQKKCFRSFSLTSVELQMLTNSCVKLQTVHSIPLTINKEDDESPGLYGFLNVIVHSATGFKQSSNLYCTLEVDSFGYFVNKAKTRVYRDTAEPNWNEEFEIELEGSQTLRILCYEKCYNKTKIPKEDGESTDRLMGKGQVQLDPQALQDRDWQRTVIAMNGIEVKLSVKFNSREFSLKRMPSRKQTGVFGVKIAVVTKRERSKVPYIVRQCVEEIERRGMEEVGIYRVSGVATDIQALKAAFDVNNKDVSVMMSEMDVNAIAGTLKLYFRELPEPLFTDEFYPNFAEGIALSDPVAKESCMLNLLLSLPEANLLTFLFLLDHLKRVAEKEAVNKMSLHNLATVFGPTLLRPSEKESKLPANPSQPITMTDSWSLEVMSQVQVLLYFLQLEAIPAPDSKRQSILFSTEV

[2] = molecular target: T2, Probable ATP-dependent RNA helicase DDX6 (Homo sapiens, UniProt P26196)
T2 sequence (P26196 whole entry): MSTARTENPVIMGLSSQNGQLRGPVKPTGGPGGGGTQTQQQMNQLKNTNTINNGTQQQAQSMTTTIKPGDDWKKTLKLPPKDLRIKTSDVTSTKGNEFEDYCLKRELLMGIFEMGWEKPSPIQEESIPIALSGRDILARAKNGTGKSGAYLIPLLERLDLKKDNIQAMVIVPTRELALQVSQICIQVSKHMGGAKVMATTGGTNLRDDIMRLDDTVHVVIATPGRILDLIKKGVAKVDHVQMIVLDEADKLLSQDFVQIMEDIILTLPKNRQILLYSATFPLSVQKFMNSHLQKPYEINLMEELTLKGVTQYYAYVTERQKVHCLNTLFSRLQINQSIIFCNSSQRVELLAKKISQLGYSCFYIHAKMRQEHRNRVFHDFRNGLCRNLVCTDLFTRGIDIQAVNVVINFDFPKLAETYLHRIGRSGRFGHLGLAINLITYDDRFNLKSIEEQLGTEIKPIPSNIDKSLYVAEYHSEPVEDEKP

[3] = molecular target: T3, Heme oxygenase 2 (Homo sapiens, UniProt P30519)
T3 sequence (P30519 whole entry): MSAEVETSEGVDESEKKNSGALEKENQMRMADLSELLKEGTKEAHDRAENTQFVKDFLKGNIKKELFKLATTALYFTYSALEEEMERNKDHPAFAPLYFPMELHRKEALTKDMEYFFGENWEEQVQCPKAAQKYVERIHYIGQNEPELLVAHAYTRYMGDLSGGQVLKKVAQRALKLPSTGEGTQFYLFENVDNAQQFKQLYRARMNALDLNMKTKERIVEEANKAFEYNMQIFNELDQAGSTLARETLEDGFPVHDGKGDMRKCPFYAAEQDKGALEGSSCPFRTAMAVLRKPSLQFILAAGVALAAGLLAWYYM

[4] = molecular target: T4, Serine/threonine-protein kinase TBK1 (Homo sapiens, UniProt Q9UHD2)
T4 sequence (Q9UHD2 whole entry): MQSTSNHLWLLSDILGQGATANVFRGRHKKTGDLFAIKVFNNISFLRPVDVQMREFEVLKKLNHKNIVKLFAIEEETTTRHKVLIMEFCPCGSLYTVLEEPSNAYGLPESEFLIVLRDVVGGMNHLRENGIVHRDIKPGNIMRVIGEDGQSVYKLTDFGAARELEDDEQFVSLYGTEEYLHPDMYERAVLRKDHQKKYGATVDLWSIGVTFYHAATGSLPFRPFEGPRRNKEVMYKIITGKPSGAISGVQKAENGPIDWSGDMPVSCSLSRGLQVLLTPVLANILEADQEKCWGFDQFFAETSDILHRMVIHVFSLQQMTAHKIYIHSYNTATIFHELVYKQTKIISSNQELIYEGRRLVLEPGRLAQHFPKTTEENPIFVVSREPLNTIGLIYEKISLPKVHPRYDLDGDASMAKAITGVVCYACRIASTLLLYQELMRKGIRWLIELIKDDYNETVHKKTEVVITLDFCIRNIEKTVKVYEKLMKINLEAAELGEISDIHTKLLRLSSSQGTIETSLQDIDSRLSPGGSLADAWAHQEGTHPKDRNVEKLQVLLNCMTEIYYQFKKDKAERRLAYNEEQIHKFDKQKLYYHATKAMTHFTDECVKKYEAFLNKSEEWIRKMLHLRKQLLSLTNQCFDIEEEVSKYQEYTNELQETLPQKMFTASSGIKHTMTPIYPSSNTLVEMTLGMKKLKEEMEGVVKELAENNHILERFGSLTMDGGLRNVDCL

[5] = molecular target: T5, Adenine phosphoribosyltransferase (Homo sapiens, UniProt P07741)
T5 sequence (P07741 whole entry): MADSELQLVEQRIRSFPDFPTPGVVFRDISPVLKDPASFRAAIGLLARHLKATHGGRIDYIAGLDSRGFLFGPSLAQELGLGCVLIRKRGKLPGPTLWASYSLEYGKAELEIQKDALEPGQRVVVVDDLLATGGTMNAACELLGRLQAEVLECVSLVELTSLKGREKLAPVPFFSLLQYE
Note: in the data inactive means no Kd found up to 30 µM.

| Structure (SMILES) | Kd [1] | Kd [2] | Kd [3] | Kd [4] | Kd [5] |
| --- | --- | --- | --- | --- | --- |
| O=c1[nH]c([C@@H]2CCCN2)nc2c1oc1ccc(Cl)cc12 | > 30 µM (inactive) | > 30 µM (inactive) | > 30 µM (inactive) | > 30 µM (inactive) | – |
| CCN1CCN(Cc2ccc(Nc3ncc(F)c(-c4cc(F)c5nc(C)n(C(C)C)c5c4)n3)nc2)CC1 [ABEMACICLIB] | > 30 µM (inactive) | > 30 µM (inactive) | > 30 µM (inactive) | > 30 µM (inactive) | – |
| C=CCn1c(=O)c2cnc(Nc3ccc(N4CCN(C)CC4)cc3)nc2n1-c1cccc(C(C)(C)O)n1 [ADAVOSERTIB] | 1.91 µM (active) | > 30 µM (inactive) | > 30 µM (inactive) | – | > 30 µM (inactive) |
| CN(C)C/C=C/C(=O)Nc1cc2c(Nc3ccc(F)c(Cl)c3)ncnc2cc1O[C@H]1CCOC1 [AFATINIB] | > 30 µM (inactive) | > 30 µM (inactive) | > 30 µM (inactive) | – | > 30 µM (inactive) |
| CCN(CCCOc1ccc2c(Nc3cc(CC(=O)Nc4cccc(F)c4)n[nH]3)ncnc2c1)CCOP(=O)(O)O [BARASERTIB] | > 30 µM (inactive) | > 30 µM (inactive) | > 30 µM (inactive) | – | > 30 µM (inactive) |
| C[C@@]1(C(=O)Nc2ccc(F)nc2)CCCN1c1nc(Nc2cc(C3CC3)n[nH]2)c2cccn2n1 [BMS-754807] | > 30 µM (inactive) | > 30 µM (inactive) | > 30 µM (inactive) | – | > 30 µM (inactive) |
| COc1cc2c(Oc3ccc4[nH]c(C)cc4c3F)ncnc2cc1OCCCN1CCCC1 [CEDIRANIB] | 2.31 µM (active) | > 30 µM (inactive) | > 30 µM (inactive) | – | > 30 µM (inactive) |
| COc1cc2ncnc(Nc3ccc(F)c(Cl)c3)c2cc1NC(=O)/C=C/CN1CCCCC1 [DACOMITINIB ANHYDROUS] | > 30 µM (inactive) | > 30 µM (inactive) | > 30 µM (inactive) | > 30 µM (inactive) | – |
| Cn1c(=O)n(-c2ccc(C(C)(C)C#N)cc2)c2c3cc(-c4cnc5ccccc5c4)ccc3ncc21 [DACTOLISIB] | > 30 µM (inactive) | > 30 µM (inactive) | > 30 µM (inactive) | – | > 30 µM (inactive) |
| O=S(=O)(c1cccc2cnccc12)N1CCCNCC1 [FASUDIL] | > 30 µM (inactive) | > 30 µM (inactive) | > 30 µM (inactive) | – | > 30 µM (inactive) |
| CCc1nc(C(N)=O)c(Nc2ccc(N3CCC(N4CCN(C)CC4)CC3)c(OC)c2)nc1NC1CCOCC1 [GILTERITINIB] | > 30 µM (inactive) | > 30 µM (inactive) | > 30 µM (inactive) | > 30 µM (inactive) | – |
| Cc1c(Cn2c(C)nc3c(C(=O)O)cc(N4CCOCC4)cc32)cccc1C(F)(F)F [GSK-2636771] | > 30 µM (inactive) | > 30 µM (inactive) | > 30 µM (inactive) | > 30 µM (inactive) | – |
| C[C@]1(O)C[C@@H](c2nc(-c3ccc4ccc(-c5ccccc5)nc4c3)c3c(N)nccn32)C1 [LINSITINIB] | > 30 µM (inactive) | > 30 µM (inactive) | > 30 µM (inactive) | > 30 µM (inactive) | – |
| N#CCNC(=O)c1ccc(-c2ccnc(Nc3ccc(N4CCOCC4)cc3)n2)cc1 [MOMELOTINIB] | > 30 µM (inactive) | > 30 µM (inactive) | > 30 µM (inactive) | – | > 30 µM (inactive) |
| CC1(C)CNc2cc(NC(=O)c3cccnc3NCc3ccncc3)ccc21 [MOTESANIB] | > 30 µM (inactive) | > 30 µM (inactive) | > 30 µM (inactive) | – | > 30 µM (inactive) |
| FC(F)(F)c1ccc(CNc2ccc(Cc3c[nH]c4ncc(Cl)cc34)cn2)cn1 [PEXIDARTINIB] | > 30 µM (inactive) | > 30 µM (inactive) | > 30 µM (inactive) | > 30 µM (inactive) | – |
| CN(c1ncccc1CNc1nc(Nc2ccc3c(c2)CC(=O)N3)ncc1C(F)(F)F)S(C)(=O)=O [PF-00562271] | > 30 µM (inactive) | > 30 µM (inactive) | > 30 µM (inactive) | – | > 30 µM (inactive) |
| C=CCN(/C=C1/C(=O)O[C@H](COC)[C@@]2(C)C1=C(O)C(=O)C1=C2[C@H](OC(C)=O)C[C@]2(C)C(=O)CC[C@@H]12)CC=C [SONOLISIB] | > 30 µM (inactive) | – | > 30 µM (inactive) | > 30 µM (inactive) | – |
| CN1CCN(c2nc(C3=C(c4c[nH]c5ccccc45)C(=O)NC3=O)c3ccccc3n2)CC1 [SOTRASTAURIN] | > 30 µM (inactive) | > 30 µM (inactive) | > 30 µM (inactive) | > 30 µM (inactive) | – |
| CC(C)(O)CC(=O)NCCn1ccc2ncnc(Nc3ccc(Oc4cccc(C(F)(F)F)c4)c(Cl)c3)c21 [TAK-285] | > 30 µM (inactive) | > 30 µM (inactive) | > 30 µM (inactive) | > 30 µM (inactive) | – |
| Cc1cc(C(=O)Nc2cc(Oc3ccc4nc(NC(=O)C5CC5)cn4n3)ccc2C)n(C)n1 [TAK-593] | 0.035 µM (active) | > 30 µM (inactive) | > 30 µM (inactive) | > 30 µM (inactive) | – |
| COc1cc2c(N3CCN(C(=O)Nc4ccc(OC(C)C)cc4)CC3)ncnc2cc1OCCCN1CCCCC1 [TANDUTINIB] | – | > 30 µM (inactive) | – | – | > 30 µM (inactive) |
| CNC(=O)c1cc(COc2nnc(Nc3ccc(Cl)cc3)c3ccoc23)ccn1 [TELATINIB] | > 30 µM (inactive) | > 30 µM (inactive) | > 30 µM (inactive) | > 30 µM (inactive) | – |
| Cc1cc(-c2cc(OC(=O)c3ccccc3)ccc2Cl)cc2nnc(Nc3ccc(OCCN4CCCC4)cc3)nc12 [TG100-801] | 0.065 µM (active) | > 30 µM (inactive) | > 30 µM (inactive) | > 30 µM (inactive) | – |
